Results: patent US10092574B2, “Inhibitors of polynucleotide repeat-associated RNA foci and uses thereof” (VALORISATION-RECHERCHE, LIMITED PARTNERSHIP, priority 2013, dated 2018)

Experiments:
[1] = tested on: CUG-repeat RNA foci (mutant DMPK mRNA); assay: FISH detection and quantification of CUG-repeat RNA foci in DM1 patient myoblasts; assay type: cell-based, human; conditions: DM1 myoblasts ~1250 CTG, 7 days, 15 μM compound 15 or 5 μM compound 32, vs DMSO (FIG. 4)
Experimental: (§1) Human myoblasts were obtained from the Myosix institute associated with the Association Frangaise contre les Myopathies (AFM). Five primary myoblast lines were obtained as controls, and one line from a DM1 patient with a 3.8 Kb CTG triplet amplification corresponding to approximately 1250 CTG repeats. The human myoblasts are cultivated in HAM-F10 media (SIGMA N6635) with 15% FBS, 1% chick embryo extract, and 390 ng/ml of dexamethasone. One day before adding compounds, 2×10^5 cells were plated in 100 mm plates (for CUGBP1 western blot or RT-PCR alternative splicing assay) or 2×10^4 cells/well are seeded in 12-well plates containing 12 mm round glass coverslips (for FISH to detect RNA foci). […]
For fluorescent in situ hybridization (FISH), cells grown on glass coverslips were fixed in PBS containing 4% paraformaldehyde, dehydrated for 2 hours in 70% ethanol, and incubated overnight with 10 ng of probe in 2×SSC 40% formamide at 37° C. […] To quantify the CUG repeat RNA aggregates, the 3D images of the foci were first processed by maximum intensity projection with the MetaMorph™ software (Molecular Devices Inc.), resulting in a 2D image containing all the foci in each cell. […] For each treatment condition, 60 to 80 cells were analyzed and all the data points were presented, with the median value indicated. […]

MBNL2 exon 7 = assay: RT-PCR alternative splicing assay, MBNL2 exon 7; assay type: cell-based, human; conditions: DM1 myoblasts
Experimental: as §1
For Western blots, CUGBP1 was detected with the 3B1-3D11 monoclonal antibody (mAb) (SIGMA C5112) and GAPDH was detected with the 6C5 mAb (Millipore MAB374). The enhanced chemiluminescence signal (ECL) was acquired and quantified with the ChemiDoc™ MP imaging system (Bio-Rad). […] The alternative splicing of the hnRNPA2/B1 transcript was detected with the primers 5′-[…]-3′ (SEQ ID NO:7) and 5′-[…]-3′ (SEQ ID NO:8). PCR was performed with Taq using standard conditions but the number of amplification cycles was optimized to be in the quantitative range for each gene. […]

| Compound | decrease in RNA foci formation (surface occupied by RNA foci in the nucleus) [1] | inclusion of MBNL2 exon 7 (MBNL2 exon 7; 20 μM, 7 days, from 40% (FIG. 8D)) | dose-response effect on splicing of MBNL2 mRNA (MBNL2 exon 7; 5 to 60 μM, 7 days (FIG. 12A)) |
| --- | --- | --- | --- |
| CCCN(CCC)S(=O)(=O)c1ccc(NS(=O)(=O)Cc2ccccc2)cc1 [Compound 15] | more than two-fold decrease | 25% | – |
| CCCc1c(C(=O)N(Cc2ccccc2)Cc2cccs2)cnn1-c1ccccc1 [Compound 32] | more than two-fold decrease | – | clear dose-response effect |
